Like-named read-outs stand apart in the source and are kept apart here.
Experiments:
[1] = tested on: KCa3.1 channel; test: Western blotting of KCa3.1 channel phosphorylation in NIH-3T3 cells; assay type: cell-based
Description: After the treatment, cells were washed once in ice-cold phosphate buffered saline (PBS) and lysed in protein extraction buffer containing protease inhibitor cocktail. Protein concentration in the supernatant was determined by Bradford protein assay. For Western blot analysis, 30 μg of protein was subjected to SDS-PAGE, and proteins were then transferred to a nitrocellulose membrane. Membranes were blocked for 1 hour with TBST (10 mM Tris-HCl, 150 mM NaCl, and 1% (v/v) Tween-20, pH 7.6) containing 5% bovine serum albumin (BSA) at room temperature. The blots were incubated for 3 hours with rabbit anti-P-PKA substrate antibody followed by incubation with horseradish peroxidase-conjugated secondary antibodies for 1 hour. Bands were visualized by chemiluminescence. Data collection and processing were performed using a luminescent image analyzer LAS-3000 and IMAGE GAUSE software (Fuji Film, Japan).

[2] = tested on: NIH-3T3 fibroblasts; test: Measurement of intracellular cAMP in NIH-3T3 fibroblasts; assay type: cell-based; conditions: for intracellular cAMP concentration: NIH-3T3 cells
Description: Meanwhile, NIH-3T3 fibroblasts were used to verify the effect on KCa3.1 mediated diseases. NIH-3T3 fibroblasts (CRL-2795; American Type Culture Collection, VA, USA) were maintained in the following manner. Cells were cultivated as a monolayer in Dulbecco's Modified Eagle Medium (DMEM, Hyclone, Logan, Utah, USA) added with 10% fetal bovine serum (FBS), 100 units/ml penicillin, and 100 μg/ml streptomycin. All cells were maintained at 37° C. in humidified condition under 5% CO2. Media were changed twice weekly, and cultures were passaged at a dilution of 1:5 weekly. The medium was then removed and replaced with fresh medium, and the cells were maintained for the time periods indicated.
NIH-3T3 fibroblasts were incubated with modafinil for 3 minutes within incomplete media. The concentration of cAMP (adenosine 3′,5′-cyclic monophosphate) from lysate was determined in each sample using a Parameter cAMP assay kit (R&D systems) according to the manufacturer's instructions.

[3] = tested on: rat pulmonary arterial rings; test: Contraction measurement on isolated rat pulmonary arterial rings; conditions: for effect on vascular smooth muscle contraction: norepinephrine (0.1 μM)-induced contraction of rat pulmonary artery; for IC50: Rattus norvegicus
Description: (§1) Experimental animals were used to examine the effect of modafinil on relaxation of contracted blood vessels. Five to six-month-old mice or rats were anaesthetized by an intraperitoneal injection of pentobarbital sodium (50 mg/kg, weight). The mouse thoracic aorta and rat pulmonary artery were dissected out and cut into rings of about 3 mm. Mechanical responses were recorded from the ring segments using a home-made myograph. Each ring was threaded with two strands of tungsten wire (120 μm in diameter). One wire was anchored in the organ bath chamber (1 ml) and the other was connected to a mechano-transducer (Grass, FT-03) mounted on a three dimensional manipulator. The muscle chamber was perfused at a flow rate of 2.5 ml/minute with oxygenated (95% O2/5% CO2) Krebs/Ringer bicarbonate solution with a peristaltic pump. The composition (unit: mM) of the Krebs solution was as follows: NaCl 118.3, KCl 4.7, MgCl2 1.2, KH2PO4 1.22, CaCl2 2.5, NaHCO3 25.0, glucose 11.1, pH 7.4. Endothelial cells were removed by gentle rubbing with a cotton ball and NO production in endothelial cells was inhibited by pretreating with NG-nitro-1-arginine methyl ester (l-NAME). Rings were pre-contracted with 0.1 μM norepinephrine or 30 mM K+.
Since increase in intracellular cAMP in vascular smooth muscle cells activates PKA and phosphorylates myosin light chain active enzyme to relax vascular smooth muscles, the present inventors examined whether modafinil relaxes vascular smooth muscles. Mouse aortic rings or rat pulmonary arterial rings were contracted by norepinephrine (0.1 μM). When the contraction reached a steady-state, modafinil was applied. With the application, the contracted mouse aortic ring (FIGS. 3A and 3B) or rat pulmonary arterial ring (FIGS. 3C and 3D) was relaxed in a concentration-dependent manner. […] When rat pulmonary artery was contracted by K+ (30 mM) of a high concentration, modafinil relaxed the contracted artery in a concentration-dependent manner (FIG. 3E). When the concentration-dependent reaction of rat pulmonary artery was fitted to Hill's equation, the IC50 of modafinil was determined to be 10.5±0.4 nM (FIG. 3F).

[4] = molecular target: T1, KCa3.1 channel (Mus musculus, UniProt O89109); test: Whole-cell patch-clamp of KCa3.1 currents in NIH-3T3 fibroblasts; assay type: cell-based
T1 construct: cells which were not exposed to modafinil or forskolin were immunoblotted by anti-KCa3.1 antibody to confirm the presence of KCa3.1 channels; endogenous in cells; host or cells: NIH-3T3 fibroblasts
Description: (§2) Electrophysiological analysis was performed according to the methods reported by Nilius and the like [Nilius et al., 1993, Pflugers Arch., 424(3-4): 285-293]. The patch-clamp technique was used in the whole-cell and excised patch configurations at room temperature. Whole-cell currents were measured using ruptured patches. Currents were monitored using an appropriate amplifier (EPC-10, HEKA, Lambrecht, Germany). In the whole cell experiment, we applied a voltage ramp from −100 mV to +100 mV with a 10 sec interval (650 ms duration) or voltage steps from a holding potential of −60 mV to potentials ranging from −100 mV to +100 mV in 20 mV increments (1 sec duration) with a 5 sec interval. Currents were recorded at a sampling rate of 1-4 kHz. Inside-out voltage clamps were performed using glass electrodes of tip resistance of 8-10 MΩ. Data were filtered at 1 KHz and stored in a computer for analysis using standard software (Axoscope 9.0, Axon Instruments, Foster City, Calif., USA). For some experiments, channel activity was expressed as the product of the number of channels times open probability (NPo), where NPo=Σ[(open time×number of open channels)/Total time of record].
(§3) The standard external solution contains the following substance within NaOH solution of pH 7.4; 150 mM NaCl, 6 mM KCl, 1.5 mM CaCl2, 1 mM MgCl2, 10 mM HEPES, and 10 mM glucoses. The osmolarity of this solution, as determined by an osmometer (Fiske, Norwood, Mass., USA), was 320±5 mOsm. In the inside-out mode, the bath solution contains 150 mM KCl, 0.5 mM MgCl2, 10 mM HEPES within KOH solution of pH 7.2, and the pipette solution contains 150 mM NaCl, 6 mM KCl, 1 mM MgCl2, 10 mM HEPES, 10 mM glucoses, 5 mM EGTA within NaOH solution of pH 7.4. Free Ca2+ concentrations in the pipette or bath solutions were adjusted to 1 μM by adding appropriate amounts of Ca2+ (calculated using CaBuf software; G. Droogmans, Leuven, ftp://ftp.cc.kuleuven.ac.be/pub/droogmans/cabuf.zip) in the presence of 5 mM EGTA.
KCa3.1 currents were activated by adding 1-ethyl-2-benzimidazolinone (1-EBIO, 100 μM) to the external solution and loading 1 μM Ca2+ via patch pipette in whole-cell clamped NIH-3T3 fibroblasts.

[5] = molecular target: T1, KCa3.1 channel; test: Inside-out patch single channel recording of KCa3.1 channels in NIH-3T3 cells; assay type: cell-based
Description: as §2, §3
In inside-out patches, KCa3.1 channels were activated by clamping Ca2+ concentration of the bath solution to 1 μM and applying 1-EBIO. The holding potential was then changed from −70 to 50 mV (FIG. 7). The single channel currents were inhibited by TRAM-34. […] The present inventors then applied modafinil (30 or 100 nM) to the bath solution. […] The open probability was also not changed by modafinil (FIGS. 7A and 7B). A linear fit of the data between 50 to −70 mV yielded a slope conductance of 38.1 pS in the control group and 39.4 pS in the presence group of modafinil (FIG. 7C).

[6] = tested on: mouse aortic smooth muscle cells; test: Measurement of intracellular cAMP in cultured mouse aortic smooth muscle cells; assay type: cell-based
Description: Single smooth muscle cells (SMCs) were used to examine the effect of modafinil on vascular diseases. Single smooth muscle cells were separated from an aorta of the mouse. Three to four-month-old mice of either gender were anaesthetized with pentobarbital sodium (50 mg/kg weight) and sacrificed by cervical dislocation. Thoracic aortas were dissected out in Ca2+-free external solution and dissociated by incubation in papain (1 mg/ml) for 5 min followed by incubation in collagenase (1.5 mg/ml), bovine serum albumin (BSA; 2 mg/ml) and dithiothreitol (1 mg/ml) for 10 to 20 min in Ca2+-free external solution at 37° C. Segments were then transferred to fresh Ca2+-free external solution, and single mouse SMCs were dispersed with gentle agitation using a glass pipette. Mouse aortic SMCs were cultivated in Dulbecco's Modified Eagle Medium (DMEM) containing 10% fetal bovine serum (FBS) plus 1% minimum essential amino acids (Life Technologies). Cell culture was maintained at 37° C. in fully humidified air with 5% CO2.
Cultured mouse aortic SMCs were incubated with modafinil for 3 minutes within incomplete media. The concentration of cAMP (adenosine 3″,5″-cyclic monophosphate) from lysate was determined in each sample using a Parameter cAMP assay kit (R&D Systems) according to the manufacturer's instructions.

[7] = tested on: mouse aortic rings; test: Contraction measurement on isolated mouse aortic rings; conditions: mouse aortic rings contracted by norepinephrine (0.1 μM), Hill's equation; read-out: IC50 of relaxation of contracted rings
Description: as §1, with “K+. […]” for “K+.”

[8] = currents activated by 1 μM Ca2+ and 1-EBIO 100 μM
[9] = modafinil 30 or 100 nM in bath solution

T1 sequence (O89109 whole entry): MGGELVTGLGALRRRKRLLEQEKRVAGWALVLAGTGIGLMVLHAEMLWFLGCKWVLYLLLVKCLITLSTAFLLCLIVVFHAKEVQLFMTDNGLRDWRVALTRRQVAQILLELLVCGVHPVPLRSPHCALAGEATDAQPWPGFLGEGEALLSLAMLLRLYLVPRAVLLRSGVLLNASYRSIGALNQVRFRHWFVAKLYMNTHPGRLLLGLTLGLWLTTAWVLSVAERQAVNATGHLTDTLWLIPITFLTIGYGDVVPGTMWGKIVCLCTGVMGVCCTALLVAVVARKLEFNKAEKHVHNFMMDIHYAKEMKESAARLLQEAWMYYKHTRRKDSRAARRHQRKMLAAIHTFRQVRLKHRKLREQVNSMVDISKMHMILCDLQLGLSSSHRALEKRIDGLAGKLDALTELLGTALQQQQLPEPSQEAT

O=S(=O)(NCCNC/C=C/c1ccc(Br)cc1)c1cccc2cnccc12 [H89]
effect on channel phosphorylation in the resting state and by forskolin ([1]; NIH-3T3 cells pretreated with PKA inhibitor for 30 min): completely abolished

O=C(CSC(c1ccccc1)c1ccccc1)NCC1CCCO1 (centres unmarked) [M006, 2-(benzhydrylthio)-N-((tetrahydrofuran-2-yl)methyl)acetamide]
intracellular cAMP concentration [2]: increased the intracellular cAMP concentration in a concentration-dependent manner
effect on vascular smooth muscle contraction [3]: relaxed
effect on KCa3.1 currents [4, 8]: inhibited

O=C(CSC(c1ccccc1)c1ccccc1)Nc1ccccc1 [M008, 2-(benzhydrylthio)-N-phenylacetamide]
intracellular cAMP concentration [2]: increased the intracellular cAMP concentration in a concentration-dependent manner
effect on vascular smooth muscle contraction [3]: relaxed
effect on KCa3.1 currents [4, 8]: inhibited

CNC(=O)C[S+]([O-])C(c1ccccc1)c1ccccc1 (centres unmarked) [M015, 2-(benzhydrylsulfinyl)-N-methylacetamide]
intracellular cAMP concentration [2]: increased the intracellular cAMP concentration in a concentration-dependent manner
effect on vascular smooth muscle contraction [3]: relaxed
effect on KCa3.1 currents [4, 8]: inhibited

O=C(C[S+]([O-])C(c1ccccc1)c1ccccc1)NCC1CCCO1 (centres unmarked) [M020, 2-(benzhydrylsulfinyl)-N-((tetrahydrofuran-2-yl)methyl) acetamide]
intracellular cAMP concentration [2]: increased the intracellular cAMP concentration in a concentration-dependent manner
effect on vascular smooth muscle contraction [3]: relaxed
effect on KCa3.1 currents [4, 8]: inhibited

Clc1ccccc1C(c1ccccc1)(c1ccccc1)n1cccn1 [TRAM-34]
effect on KCa3.1 currents [4, 8]: inhibited
effect on single channel currents ([5]; activated by 1 μM Ca2+ and 1-EBIO): inhibited

CC#CCC(C)[C@H](O)/C=C/[C@@H]1[C@H]2C/C(=C/CCCC(=O)O)C[C@H]2C[C@H]1O (some centres unmarked) [iloprost]
intracellular cAMP concentration [2]: increased cAMP concentration
IC50 ([3]; read-out: IC50 of inhibition of rat pulmonary arterial contraction): 39.4 ± 5.1 nM

NC(=O)C[S+]([O-])C(c1ccccc1)c1ccccc1 (centres unmarked) [modafinil, 2-(benzhydrylsulfinyl) acetamide]
intracellular cAMP concentration ([6]; cultured mouse aortic SMCs exposed for 3 minutes): increased in a concentration-dependent manner
concentration from which intracellular cAMP concentration significantly increased ([6]; primary cultured mouse aortic smooth muscle cells, 3 min, p<0.01): 10 nM
concentration of cAMP compared to treating the cell with 10 μM of forskolin ([2]; NIH-3T3 cell, 1 μM of modafinil): 2 times
intracellular cAMP concentration [2]: increased in a concentration-dependent manner
IC50 [7]: 11.9 ± 0.3 nM
IC50 ([3]; read-out: IC50 of relaxation of contracted artery): 10.5 ± 0.4 nM
IC50 ([3]; read-out: IC50 of relaxation of contracted rings): 10.1 ± 0.1 nM
IC50 [4]: 6.8 ± 0.7 nM
effect on KCa3.1 currents in cells pretreated by H89 ([4]; H89 (10 μM) pretreatment): not inhibited
effect on KCa3.1 currents with PKI14-22 in the pipette solution ([4]; PKI14-22 (10 μM) in pipette solution): not affected
concentration for maximal inhibition of KCa3.1 currents [4, 8]: 100.0 ± 5.7 nM
KCa3.1 channel phosphorylation ([1]; NIH-3T3 cells, treatment for 5 min): increased KCa3.1 phosphorylation in a concentration-dependent manner
slope conductance of single KCa3.1 channel ([5]; linear fit between 50 to -70 mV, in the presence of modafinil): 39.4 pS
open probability of KCa3.1 channels [5, 9]: not changed
single channel activity of KCa3.1 channels [5, 9]: did not change

— patent US9259412B2, “Composition of the treatment of vascular diseases or KCa3.1 channel-mediated diseases comprising modafinil or derivatives thereof” (EWHA UNIVERSITY—INDUSTRY COLLABORATION FOUNDATION, priority 2011, dated 2016)
